Test results published in the METLIN SMRT retention time set (Domingo-Almenara et al. 2019).

assay: gradient 5% acetonitrile 3 min, to 50% in 2 min, to 85% in 15 min, held 3 min, 100 µL/min; conditions: column: Zorbax Extend-C18 2.1 x 50 mm; eluents: water / acetonitrile, 0.1% formic acid
Summary of the method: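 Pure standards were analyzed in mixtures of ~100 molecules using HPLC coupled to a quadrupole time-of-flight mass spectrometer, in both positive and negative ionization mode. Separation used a Zorbax Extend-C18 column (2.1 × 50 mm, 1.8 μm) at 100 μL/min, with water and acetonitrile each containing 0.1% formic acid. Dead and dwell volumes were 40 μL and 900 μL, and data were collected over 3 months. Retention time was read from computationally picked adduct peaks, each inspected manually.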

| RP-LC retention time | Structure (SMILES) |
| --- | --- |
| 939 s | O=C(C1=NN(Cc2ccccc2F)c2ccccc2S1(=O)=O)N1CCCCC1 |
| 848 s | O=C(Cc1cccs1)N1CCCn2cc(-c3ccccc3F)nc21 |
| 680 s | Cn1cc(C(=O)OCC2CCN(CCNS(C)(=O)=O)CC2)c2ccccc21 |
| 584 s | O=C(CCCn1c(=O)c2cccn2c2ccccc21)NCCCN1CCC(N2CCCCC2)CC1 |
| 939 s | Cc1nc(-c2csc(S(=O)(=O)N3CCCC(C(=O)N(C)Cc4ccccc4)C3)c2)no1 (centres undefined) |
| 707 s | CN1C(=O)C2(CCN(C(=O)c3ccccc3)C2)c2ccccc21 (centres undefined) |
| 700 s | CCOc1ccc(NC(=O)c2cccc(N3CCNC(c4ccccc4)C3)n2)cc1 (centres undefined) |
| 1080 s | CCCN1C(=O)c2cc(S(=O)(=O)Nc3ccccc3C)ccc2Oc2cccnc21 |
| 822 s | Cc1cc2c(cc1S(=O)(=O)N1CCCC1C(=O)NCCCc1ccccc1)OC(C)C(=O)N2 (centres undefined) |
| 736 s | CCc1cc(-c2csc(S(=O)(=O)NCCCN3CCN(c4ccccc4)CC3)c2)on1 |
| 624 s | CCCN1CCn2cc(C(=O)NCc3cccc(Br)c3)nc2C1 |
| 597 s | CCc1nnc2nc(N3CCN(C(=O)c4ccccc4)CC3)cc(C)n12 |
| 882 s | O=C1CCSc2c1cccc2C(=O)N1CCN(c2ccc(F)cc2)CC1 |
| 561 s | CCOc1ccccc1C(=O)NCC1CCN(Cc2ccccn2)CC1 |
| 899 s | CCC(=O)N1CCc2sc(C(=O)N3CCN(c4ccc(Cl)cc4)CC3)cc2C1 |
| 835 s | CCc1noc2nc(C)n(CC(=O)NCC(C)c3ccccc3)c(=O)c12 (centres undefined) |
| 798 s | O=C(Cc1cccc(F)c1)N1CCN(c2cc(-c3cccs3)[nH]n2)CC1 |
| 938 s | O=c1n(Cc2ccccc2F)nc2c(S(=O)(=O)N3CCCCCC3)cccn12 |
| 742 s | O=C1NCCCn2cc(S(=O)(=O)N3CCN(c4ccccc4F)CC3)cc21 |
| 617 s | CCN1CCN(c2cc(C)c3cc(NC(=S)NCc4ccc(C)cc4)ccc3n2)CC1 |
| 656 s | Cc1ccc(C)c(S(=O)(=O)NCCn2c(C)cnc2C2CCC2)c1 |
| 662 s | Cc1ccn2cc(C(=O)N3CCN(c4ccccc4F)CC3)nc2c1 |
| 1110 s | O=C1CCCc2nc(N3CCN(c4ncccn4)CC3)nc(Nc3ccccc3)c21 |
| 717 s | O=C(Nc1cc(F)ccc1F)N1CCCC1c1nncn1-c1ccccc1 (centres undefined) |
| 1090 s | CCc1nc(-c2csc(S(=O)(=O)N3CCCC(C(=O)Nc4ccc(F)c(F)c4)C3)c2)no1 (centres undefined) |
| 612 s | CCc1nnc(-c2ccc(S(=O)(=O)N3CCN(CC(C)C)CC3)o2)o1 |
| 658 s | Cc1sc2ccn(CC(C)C)c(=O)c2c1C(=O)NC1CCN(Cc2ccccc2)CC1 |
| 1060 s | CCOCCCNC(=O)Cn1cccc1-c1nc(-c2ccc(Cl)cc2)cs1 |

Second part, the compound before the results:

| Structure (SMILES) | RP-LC retention time |
| --- | --- |
| O=C(NC1CCCCC1)c1nc(-c2cn(-c3ccc(F)cc3)nn2)no1 | 938 s |
| CCCc1noc(-c2nc(-c3ccc(OC)c(OC)c3)no2)n1 | 1050 s |
| CCOC(=O)c1noc2ncnc(Nc3ccc(C)cc3)c12 | 1010 s |
| NS(=O)(=O)c1cccnc1Nc1cccc(Cl)c1 | 855 s |
| CC1(C(=O)NCc2ccccc2)CCCN(C(=O)Nc2ccc(Br)cc2)C1 (centres undefined) | 980 s |
| COc1cccc(CNC(=O)C2(C)CCCN(C(=O)Nc3cccc(Br)c3)C2)c1 (centres undefined) | 993 s |
| O=C(Cn1c(=O)c2cccn2c2ccc(F)cc21)NC1CCCCC1 | 850 s |
| CCOC(=O)c1c(C)n(C)c2ccc(OC(C)C(=O)OC)cc12 (centres undefined) | 894 s |
| COc1cc(N)c(Cl)cc1C(=O)OCCN1CCCCC1 | 629 s |
| COc1cc(OC)c(NC(=O)Cn2ccc3ccc(-c4nnc(C)o4)cc32)cc1Cl | 859 s |
| CCCN(CC1CCOC1)S(=O)(=O)c1ccc(C)c(F)c1 (centres undefined) | 878 s |
| Cc1ccc(C(=O)N2CCCC(COc3ccc(C(=O)NC4CC4)cc3)C2)cc1F (centres undefined) | 849 s |
| Cc1ccc(NS(=O)(=O)c2cc(-c3[nH]ncc3C(=O)N3CCCCC3)oc2C)cc1 | 773 s |
| COc1ccccc1OCCCn1c(C2CCCO2)nc2ccccc21 (centres undefined) | 602 s |
| O=c1c2nc(-c3ccc4c(c3)OCO4)cn2ccn1-c1cccc(Cl)c1 | 834 s |
| COc1ccc(C(=O)N2CCn3c(nnc3C(C)C)C2)c(OC)n1 | 588 s |
| Cc1cc(Cl)ccc1OCC(=O)N(Cc1ccc(N(C)C)cc1)C1CCS(=O)(=O)C1 (centres undefined) | 849 s |
| CCc1noc(-c2ccnc(-n3ncc(C(=O)NC4CC4)c3C)c2)n1 | 815 s |
| Cc1cccc(CNC(=O)C2(C)Cn3cnc(C(=O)NCc4ccc(F)cc4)c3C(=O)N2C2CC2)c1 (centres undefined) | 798 s |
| COc1ccc(CN2C[C@@H]3C(=O)N(Cc4ccc5c(c4)OCO5)C(=O)[C@@H]3C2)c(OC)c1 | 691 s |
| O=C(NCC1CC1)c1cccc(OC2CN(Cc3cc4ccccc4nc3Cl)C2)c1 | 667 s |

| Structure (SMILES) | RP-LC retention time |
| --- | --- |
| Cc1cc(Br)ccc1NC(=O)Cn1cnc(C)c(C)c1=O | 673 s |
| CCN1CCN(c2ncc(N3CCC(C(=O)NCC(C)C)CC3)cn2)CC1 | 582 s |
| Cc1ccc(N2CCC(NC(=O)Cc3ccccc3C)C2=O)cc1C (centres undefined) | 893 s |
| Cc1ccc2c(c1)C(=O)NC1(CCN(C(=O)c3cccc(F)c3)CC1)N2C | 756 s |
| CCCc1cc(N2CCN(C(=O)C3CCN(C(C)=O)CC3)CC2)nc2nnc(CC)n12 | 587 s |
| Cn1ncc2c(N3CCSCC3)nc(C(=O)NCc3ccncc3)nc21 | 566 s |
| O=C(Nc1ccc(Nc2cc(-n3ccnc3)ncn2)cc1)c1c[nH]c2ccccc12 | 562 s |
| CCOC(=O)c1cc(C)nc2c1c(=O)n(Cc1ccccc1F)c(=O)n2C | 1070 s |
| CCn1cc(-c2nc(CC(=O)Nc3ccc(F)cc3F)cs2)c2cccnc21 | 992 s |
| CC(C)NC(=O)c1ccc(OCC2CCCN(C(=O)c3ccc(Cl)cc3)C2)cc1 (centres undefined) | 881 s |
| COc1ccc(NC(=O)Cn2cccc2-c2nnc(C3CCC3)o2)cc1 | 850 s |
| Cc1ccn2cc(-c3ccc(NC(=O)c4ccccc4F)cc3)nc2n1 | 634 s |
| Cc1cc2c(c(=O)n(-c3ccc(F)cc3)c(=O)n2CC(=O)Nc2cccc(F)c2)n1C | 840 s |
| COc1ccc(-c2cc(N3CCC(NC(=O)c4cc(OC)c(OC)c(OC)c4)C3)n[nH]2)cc1 (centres undefined) | 688 s |
| Cc1cc(C(=O)NCc2ccc(F)cc2F)nc2cc(-c3cccs3)nn12 | 1140 s |
| COc1ncc(C(=O)NCc2ccc(OC)c(OC)c2)cn1 | 638 s |
| CCC(C)NC(=O)NCCn1c(-c2ccc(C)cc2)nc2cccnc21 (centres undefined) | 650 s |
| O=C1[C@H]2CN(Cc3ccc(Cl)c(F)c3)C[C@H]2C(=O)N1CCc1ccccc1 | 901 s |
| Cc1cc(Br)ccc1NC(=O)C(=O)Nc1ccc2nc3n(c(=O)c2c1)CCCCC3 | 990 s |
| CCOC(=O)C1CCN(C(=O)CCC(=O)N2CCCn3nc(C)cc32)CC1 | 646 s |
| CCC1Oc2ccc(S(=O)(=O)N3CCC(C(=O)N(C)c4ccc(C)cc4)CC3)cc2NC1=O (centres undefined) | 837 s |

| Structure (SMILES) | RP-LC retention time |
| --- | --- |
| CCc1ccccc1NC(=O)Cn1c(=O)n(-c2ccc(C)cc2)c(=O)c2c1cc(C)n2C | 892 s |
| COCCn1cc2c3c(cccc31)CN(C(=O)Nc1ccc(OC)c(F)c1)CC2 | 891 s |
| Cc1ccc(S(=O)(=O)NCC(c2ccccc2)N(C)C)cc1 (centres undefined) | 642 s |
| Cc1cc(NC(=O)C2CCCN(c3nc4ccsc4c(=O)n3Cc3ccc(F)cc3)C2)ccc1F (centres undefined) | 1050 s |
| CCCNC(=O)C1CCN(c2ccc(SCC(=O)NCc3cccs3)nn2)CC1 | 602 s |
| N#Cc1ccc(S(=O)(=O)NC2CCc3nn(CC4CC4)c(=O)n3CC2)cc1 (centres undefined) | 616 s |
| CCCCNC(=O)Cn1c(=O)c2cnc(-c3ccc(Cl)cc3)nc2n(C)c1=O | 982 s |
| Oc1ccc(Cc2ccccc2Cl)c(O)c1 | 891 s |
| CCOc1ccccc1-c1noc(Cn2c(=O)n(-c3ccc(OC)cc3)c(=O)c3sccc32)n1 | 962 s |
| COCCn1cc(C(=O)Nc2ccccc2F)c2nn(-c3ccccc3)c(=O)c-2c1 | 880 s |
| COc1ccc2c(c1)CC(NC(=O)Nc1ccc(Br)cc1)CO2 (centres undefined) | 888 s |
| CCOC(=O)C1CCN(S(=O)(=O)c2cccc(-c3nnc(-c4ccc(C)cc4)o3)c2)CC1 | 1090 s |
| COc1ccc(OCc2nc(-c3ccc4oc(C)nc4c3)no2)cc1 | 984 s |
| Cc1ccc(C(=O)N2CCC(CC(=O)NCCc3c[nH]c4ccc(Cl)cc34)CC2)cc1 | 828 s |
| CC(C)n1cc(CN2CCC3(CC2)CN(Cc2ccccc2)CC3CO)cn1 (centres undefined) | 524 s |
| O=C(Cc1c[nH]c2ccccc12)N1CCC(Oc2ccc(-c3noc(C4CC4)n3)cc2)C1 (centres undefined) | 964 s |
| CNC(=O)[C@@H]1CN(C(=O)c2ccc(Cl)s2)C[C@H]1c1nc(COC)no1 | 698 s |
| Cc1cc(F)ccc1NC(=O)C1CCN(S(=O)(=O)c2cc(C(=O)N(C)C)cs2)CC1 | 758 s |
| CCCn1cc(CCNC(=O)Nc2cccc(C)c2C)c2cccnc21 | 785 s |
